The record followed here is ChEMBL document CHEMBL5321270, “Discovery of Pyrazolone Carbothioamide Derivatives as Inhibitors of the Pdr1-KIX Interaction for Combinational Treatment of Azole-Resistant Candidiasis” (J Med Chem, 2023).

The structures appear in SMILES notation. Converted amounts (≈) assume the structure as drawn. The source made the active and inactive calls. The calls are words filed in the database; no cut-off is given here.

The nature of series [1]: Inhibition of fluorescent probe FITC tagged PDR1-KIX domain (unknown origin) protein-protein interaction assessed as inhibition constant incubated for 2 hrs by fluorescence polarization binding assay.
The test system of series [2] is Nakaseomyces glabratus. Briefly: Synergistic antifungal activity against fluconazole-resistant Candida glabrata 0161 assessed as fractional inhibitory concentration index incubated for 48 hrs in presence of fluconazole by checkerboard microdilution method. The class given is functional.
The test system of series [3] is Nakaseomyces glabratus. The series can be described thus: Antifungal activity against fluconazole-resistant Candida glabrata 0161 assessed as fluconazole fractional inhibitory concentration incubated for 48 hrs in presence of fluconazole by microplate reader assay. The class given is functional.
A short description of series [4]: Aqueous solubility of compound. It is filed as physicochemical.
In series [5] the test system is Nakaseomyces glabratus. The series can be described thus: Antifungal activity against fluconazole-resistant Candida glabrata 0161 assessed as fungal growth inhibition incubated for 48 hrs by microplate reader assay. It is filed as functional.
In series [6] the test system is Nakaseomyces glabratus. The series can be described thus: Antifungal activity against fluconazole-resistant Candida glabrata 0161 assessed as fractional inhibitory concentration incubated for 48 hrs in presence of fluconazole by microplate reader assay. The class given is functional.
Series [7] in a line: Binding affinity to Candida glabrata KIX domain assessed as dissociation constant. Also on record: species or system Nakaseomyces glabratus.
For series [8], the system named is Nakaseomyces glabratus. Briefly: Antifungal activity against FLC-resistant Candida glabrata 0161 infected in cyclophosphamide immunosuppressed ICR mouse model assessed as inhibition of fungal growth in kidney at 40 mg/kg,ip administrated for 5 days. The settings on record: time 5.0 day. It is filed as functional, organism-based.
A further series relates to Trichophyton rubrum. Briefly: Antifungal activity against Trichophyton rubrum assessed as fungal growth inhibition incubated for 48 hrs by microplate reader assay. It is filed as functional.
The subject of another series is Candida parapsilosis. The series can be described thus: Antifungal activity against Candida parapsilosis 20090 assessed as fungal growth inhibition incubated for 48 hrs by microplate reader assay. The class given is functional. Conditions: Lodderomyces parapsilosis.
Another series relates to Candida albicans. The series can be described thus: Antifungal activity against Candida albicans assessed as fungal growth inhibition incubated for 48 hrs by microplate reader assay. The class given is functional.
The subject of the next series is Aspergillus fumigatus. Briefly: Antifungal activity against Aspergillus fumigatus 7544 assessed as fungal growth inhibition incubated for 48 hrs by microplate reader assay. It is filed as functional.
The test system of series [9] is [Candida] auris. The series can be described thus: Antifungal activity against Candida auris 15448 assessed as fungal growth inhibition incubated for 48 hrs by microplate reader assay. The class given is functional. Conditions: Candidozyma auris.
The subject of series [10] is Nakaseomyces glabratus. The series can be described thus: Antifungal activity against fluconazole-resistant Candida glabrata 8535 assessed as fungal growth inhibition incubated for 48 hrs by microplate reader assay. It is filed as functional.
In a further series the test system is Cryptococcus neoformans. Briefly: Antifungal activity against Cryptococcus neoformans H99 assessed as fungal growth inhibition incubated for 48 hrs by microplate reader assay. It is filed as functional.
Series [11] concerns [Candida] auris. Briefly: Antifungal activity against Candida auris 0030 assessed as fungal growth inhibition incubated for 48 hrs by microplate reader assay. The class given is functional. Conditions: Candidozyma auris.
Series [12] concerns Nakaseomyces glabratus. Briefly: Antifungal activity against fluconazole-resistant Candida glabrata 9256 assessed as fungal growth inhibition incubated for 48 hrs by microplate reader assay. It is filed as functional.
Another series deals with Nannizzia gypsea. The series can be described thus: Antifungal activity against Microsporum gypseum assessed as fungal growth inhibition incubated for 48 hrs by microplate reader assay. The class given is functional.
A further series has as its system Candida tropicalis. Briefly: Antifungal activity against Candida tropicalis 10186 assessed as fungal growth inhibition incubated for 48 hrs by microplate reader assay. The class given is functional.

Turning to `N#CCC(=O)NNC(=S)Nc1ccc(Cl)c(Cl)c1`, in series [1], the Ki amounted to 29.2 µM. Moreover, in the series on Nakaseomyces glabratus [2], the “fractional inhibitory concentration index (FICI)” value is given as 0.31. In addition, the “fluconazole MIC in combination” value in the series on Nakaseomyces glabratus [3] was found to be 2 µg/mL. In series [4], this compound came in with a solubility of 9.12 µg/mL (≈ 30.1 µM). In the series with Nakaseomyces glabratus [5], the MIC was determined as 32 µg/mL (≈ 106 µM). Further, the FIC in the series with Nakaseomyces glabratus [6] was found to be 8 µg/mL. Also, in [7], the dissociation constant (Kd) stood at 2.8 µM. For the same compound, the result with Nakaseomyces glabratus [8] was Active.
Regarding `Nc1cc(=O)n(C(=S)Nc2ccc(Cl)nc2)[nH]1`, the Ki in series [1] was 144 µM. Moreover, in the series on Nakaseomyces glabratus [2], the “fractional inhibitory concentration index (FICI)” value is 0.52. Also, the minimum inhibitory concentration (MIC) came to 1 µg/mL (≈ 3.71 µM) with Trichophyton rubrum; 4 µg/mL (≈ 14.8 µM) in the series on Candida parapsilosis; 4 µg/mL (≈ 14.8 µM) in the series with Candida albicans; 16 µg/mL (≈ 59.3 µM) with Aspergillus fumigatus; 2 µg/mL (≈ 7.42 µM) in [Candida] auris [9]; 0.5 µg/mL (≈ 1.85 µM) with Nakaseomyces glabratus [5]. Besides, the MIC was 0.25 µg/mL (≈ 0.927 µM) in the series on Nakaseomyces glabratus [10]; 0.063 µg/mL (≈ 0.234 µM) with Cryptococcus neoformans; 2 µg/mL (≈ 7.42 µM) in [Candida] auris [11]; 0.25 µg/mL (≈ 0.927 µM) in the series on Nakaseomyces glabratus [12]; 1 µg/mL (≈ 3.71 µM) with Nannizzia gypsea; 4 µg/mL (≈ 14.8 µM) in the series with Candida tropicalis. Besides, the “fluconazole MIC in combination” value with Nakaseomyces glabratus [3] came to 0.5 µg/mL. The FIC in the series on Nakaseomyces glabratus [6] is 0.25 µg/mL.
As to `Nc1cc(=O)n(C(=S)Nc2cccc(Cl)c2Cl)[nH]1`, in series [1], the Ki turned out to be 27.2 µM. Moreover, the “fractional inhibitory concentration index (FICI)” value with Nakaseomyces glabratus [2] is 0.31. The MIC came out at 1 µg/mL (≈ 3.3 µM) in the series with Trichophyton rubrum; 4 µg/mL (≈ 13.2 µM) in the series with Candida parapsilosis; 4 µg/mL (≈ 13.2 µM) in the series with Candida albicans; 16 µg/mL (≈ 52.8 µM) in the series with Aspergillus fumigatus; 2 µg/mL (≈ 6.6 µM) in [Candida] auris [9]; 0.25 µg/mL (≈ 0.825 µM) in the series with Nakaseomyces glabratus [5]. Moreover, the MIC turned out to be 0.25 µg/mL (≈ 0.825 µM) in the series with Nakaseomyces glabratus [10]; 0.063 µg/mL (≈ 0.208 µM) in the series with Cryptococcus neoformans; 2 µg/mL (≈ 6.6 µM) in [Candida] auris [11]; 0.25 µg/mL (≈ 0.825 µM) in the series with Nakaseomyces glabratus [12]; 1 µg/mL (≈ 3.3 µM) in the series with Nannizzia gypsea; 4 µg/mL (≈ 13.2 µM) in the series with Candida tropicalis. Moreover, in the series with Nakaseomyces glabratus [3], the “fluconazole MIC in combination” value is 2 µg/mL. For the same compound, the FIC in the series with Nakaseomyces glabratus [6] amounted to 0.063 µg/mL.
As for `Nc1cc(=O)n(C(=S)Nc2ccccc2Cl)[nH]1`, the inhibitory constant (Ki) in [1] was 85.8 µM. Further, the “fractional inhibitory concentration index (FICI)” value in the series with Nakaseomyces glabratus [2] is recorded as 0.76. For the same compound, the MIC was 1 µg/mL (≈ 3.72 µM) with Trichophyton rubrum; 4 µg/mL (≈ 14.9 µM) with Candida parapsilosis; 4 µg/mL (≈ 14.9 µM) in the series with Candida albicans; 16 µg/mL (≈ 59.5 µM) with Aspergillus fumigatus; 2 µg/mL (≈ 7.44 µM) in series [Candida] auris [9]; 0.5 µg/mL (≈ 1.86 µM) with Nakaseomyces glabratus [5]. Besides, the MIC in the series on Nakaseomyces glabratus [10] is 0.25 µg/mL (≈ 0.93 µM); with Cryptococcus neoformans it was 0.063 µg/mL (≈ 0.234 µM); in [Candida] auris [11], 2 µg/mL (≈ 7.44 µM); in the series with Nakaseomyces glabratus [12], 0.25 µg/mL (≈ 0.93 µM); in the series on Nannizzia gypsea, 1 µg/mL (≈ 3.72 µM); in the series with Candida tropicalis, 4 µg/mL (≈ 14.9 µM). The “fluconazole MIC in combination” value in the series on Nakaseomyces glabratus [3] amounted to 16 µg/mL. Also, in the series on Nakaseomyces glabratus [6], the FIC is 0.13 µg/mL.
In the case of `Nc1cc(=O)n(C(=S)Nc2ccc(Cl)cc2Cl)[nH]1`, the Ki in series [1] worked out at 84.7 µM. Further, the “fractional inhibitory concentration index (FICI)” value in the series with Nakaseomyces glabratus [2] came out at 0.29. Besides, the MIC was 1 µg/mL (≈ 3.3 µM) in the series on Trichophyton rubrum; 4 µg/mL (≈ 13.2 µM) with Candida parapsilosis; 4 µg/mL (≈ 13.2 µM) with Candida albicans; 16 µg/mL (≈ 52.8 µM) in the series with Aspergillus fumigatus; 2 µg/mL (≈ 6.6 µM) in series [Candida] auris [9]; 0.5 µg/mL (≈ 1.65 µM) with Nakaseomyces glabratus [5]. In addition, the MIC with Nakaseomyces glabratus [10] was 0.25 µg/mL (≈ 0.825 µM); in the series on Cryptococcus neoformans, 0.063 µg/mL (≈ 0.208 µM); in [Candida] auris [11], 2 µg/mL (≈ 6.6 µM); in the series on Nakaseomyces glabratus [12] it was 0.25 µg/mL (≈ 0.825 µM); with Nannizzia gypsea it was 1 µg/mL (≈ 3.3 µM); in the series on Candida tropicalis, 4 µg/mL (≈ 13.2 µM). Moreover, in the series with Nakaseomyces glabratus [3], the “fluconazole MIC in combination” value amounted to 1 µg/mL. For the same compound, the FIC in the series with Nakaseomyces glabratus [6] turned out to be 0.13 µg/mL.
In the case of `Nc1cc(=O)n(C(=S)Nc2ccc(Cl)c(Cl)c2)[nH]1`, the Ki in series [1] was 109 µM. For the same compound, in the series on Nakaseomyces glabratus [2], the “fractional inhibitory concentration index (FICI)” value is 0.53. Moreover, the MIC was 1 µg/mL (≈ 3.3 µM) with Trichophyton rubrum; 4 µg/mL (≈ 13.2 µM) in the series with Candida parapsilosis; 4 µg/mL (≈ 13.2 µM) with Candida albicans; 16 µg/mL (≈ 52.8 µM) with Aspergillus fumigatus; 2 µg/mL (≈ 6.6 µM) in series [Candida] auris [9]; 0.25 µg/mL (≈ 0.825 µM) in the series on Nakaseomyces glabratus [5]. In addition, the MIC is 0.25 µg/mL (≈ 0.825 µM) with Nakaseomyces glabratus [10]; 0.063 µg/mL (≈ 0.208 µM) with Cryptococcus neoformans; 2 µg/mL (≈ 6.6 µM) in series [Candida] auris [11]; 0.25 µg/mL (≈ 0.825 µM) in the series on Nakaseomyces glabratus [12]; 1 µg/mL (≈ 3.3 µM) in the series on Nannizzia gypsea; 4 µg/mL (≈ 13.2 µM) in the series with Candida tropicalis. Moreover, the “fluconazole MIC in combination” value in the series on Nakaseomyces glabratus [3] stood at 0.25 µg/mL. Besides, the FIC in the series on Nakaseomyces glabratus [6] came out at 0.13 µg/mL.
